Assay [1] concerns MDA-MB-231 cells. Description: CCK assay, proliferation of breast cancer cells. It is filed as cell-based, human. The conditions noted are these: MDA-MB-231, 0.1 to 16 µM, 48 hours, absorbance at 450 nm, FIG. 1. How it is done: Human breast cancer cell line MDA-MB-231 cells were plated in a 96-well plate at a density of 1 x 10^5 cells/well and cultured for 24 hours. Thereafter, the cells were treated with compound AON-MG23 of the present invention at various concentrations and cultured for 48 hours. The cells were treated with the compound of the present invention at various concentrations of 0 µM, 0.1 µM, 0.25 µM, 0.5 µM, 1 µM, 2 µM, 4 µM, 8 µM, and 16 µM. 10 µL of cell counting kit (CCK) reagent was added and allowed to react for one hour, and then the absorbance was measured at 450 nm.

Assay [2] relates to MDA-MG231-LM3 cells. Put plainly: Transwell membrane filter migration assay. It is filed as cell-based, human. The settings on record: cells pre-treated with 0.5 µM, eight hours, FIG. 6. How it is done: Breast cancer cell line MDA-MG231-LM3 cells pre-treated with 0.5 µM of compound AON-MG23 of the present invention and cells that were not treated were prepared. […] The membrane filter seeded with the cells was placed into a 24-well plate supplemented with a cell culture medium containing fetal bovine serum and cultured for eight hours in an incubator at 37°C and 5% CO2. Cells that migrated to the bottom surface of the membrane filter were stained and photographed under a microscope, and counted and analyzed using Image J software.

The test system of assay [3] is MDA MB-231 cells. Description: Matrigel invasion assay (Transwell invasion chamber), 20 hours. It is filed as cell-based, human. The settings on record: 0.5, 1, 2, 4 µM, FIG. 7. How it is done:
Human breast cancer cell line MDA MB-231 cells were seeded at a density of 6 x 10^4 cells/well on top of a filter coated with Matrigel (Transwell invasion chamber, Corning), treated with compound AON-MG23 of the present invention (0, 0.5, 1, 2, 4 µM), and cultured in a CO2 in an incubator at 37 °C for 20 hours. After culture, cell fixation and staining were performed using the Diff-Quick stain Kit (Sysmex, Kobe, Japan). The stained cells were imaged under a microscope, and the cells were counted and statistically analyzed using Image J software.

Assay [4] has as its system MDA-MB-231. Description: Matrigel invasion assay (Transwell membrane insert), 24 hours. It is filed as cell-based, human. The settings on record: 0.5 µM and 1 µM, reduction dependent on concentration, FIG. 8. As for the experimental part: Breast cancer cell line MDA-MB-231 was seeded at a density of 6 x 10^4 cells/well on top of a membrane filter coated with Matrigel(Transwell membrane insert, Corning). Thereafter, the cells were treated with compound AON-MG23 of the present invention at concentrations of 0 µM (DMSO), 0.5 µM, and 1 µM, and cultured in a CO2 incubator at 37 °C for 24 hours. After 24 hours of culture, the cells on the bottom surface of the membrane filter were stained and photographed under a microscope, and counted and analyzed using Image J software.

Assay [5] relates to six breast cancer cell lines (SUM149, BCX010, BT20, MDA-MB-231-LM3, CAL51, PyMT-N). Put plainly: colony formation test. It counts as cell-based, human. The settings on record: 0.25 µM, 0.5 µM and 1 µM, 11 to 14 days, all six cell lines, FIGS. 2A to 2C. How it is done: To confirm the proliferation inhibitory effect of the compound of the present invention on breast cancer cells, a colony formation test was conducted. Specifically, six breast cancer cell lines (SUM149, BCX010, BT20, MDA-MB-231-LM3, CAL51, PyMT-N) were plated in a 6-well cell culture plate at a density of 250 or 1,000 cells per well. On the next day, the cell culture medium was removed and replaced with a cell culture medium containing compound AON-MG23 of the present invention at concentrations of 0 µM, 0.25 µM, 0.5 µM, and 1 µM. After culturing the cells for 11 to 14 days, the resulting cell colonies were stained and photographed, and then the cell colonies were counted and analyzed using Image J software.

The test system of assay [6] is four breast cancer cell lines (SUM149, BCX010, BT20, MDA-MB-231-LM3). Put plainly: soft agar assay (tumorigenicity). It counts as cell-based. The conditions noted are these: Homo sapiens, 336 h, 100 nM, 500 nM, 1000 nM tested, two weeks, FIGS. 3A and 3B, read-out: concentration from which tumorigenicity was inhibited. How it is done:
To confirm the tumorigenicity inhibitory effect of the compound of the present invention on breast cancer cells, an […] soft agar assay was performed. Specifically, 0.5% agar or 0.7% agar was added to cell culture media diluted with the compound of the present invention at concentrations of 0 nM, 100 nM, 500 nM, and 1000 nM. 2 ml of 0.5% agar containing the compound of the present invention at various concentrations was added to a 6-well cell culture plate and solidified at room temperature. Thereafter, 1 ml of 1 x 10^4 cells of four breast cancer cell lines (SUM149, BCX010, BT20, MDA-MB-231-LM3) and 1 ml of 0.7% agar containing the compound of the present invention at various concentrations were mixed in a 1:1 ratio to prepare a 0.35% solution, and 2 ml of this solution was placed on top of the solidified 0.5% agar. The mixture was then solidified at room temperature until the upper layer was fixed, and then cells were cultured in an incubator at 37 °C and 5% CO2 for two weeks. The formed cell clones were stained and photographed, and then the cell clones were counted and analyzed using Image J software.

In assay [7] the test system is HCC1806. Put plainly: SRB assay with Bliss synergy scoring, combination with paclitaxel. It counts as cell-based, human. The settings on record: AON-MG23 combined with paclitaxel, HCC1806, five days co-treatment, score > 0 indicates a synergistic effect, FIG. 10B. As for the experimental part: (§1) The combination effect of compound AON-MG23 of the present invention was confirmed using Bliss scoring based on the results of the sulforhodamine B assay (SRB assay). Specifically, human breast cancer cell lines SUM149 and HCC1806 were plated in a 96-well cell culture plate at a density of 1 x 10^3 cells/well. On the next day, paclitaxel, the drug to be tested for the combination effect with compound AON-MG23 of the present invention, was diluted to concentrations for testing, and cells were cultured for 24 hours. After carefully removing the cell culture medium, the cells were co-treated with AON-MG23 and paclitaxel at different concentrations and cultured for five days. […] The absorbance of the dissolved solution was measured at […] using a plate reader. The measured absorbance values were compared to the control group, converted into percentages, and saved in an Excel file format. […] The presence of a synergistic effect was evaluated according to the following criteria based on relevant literature (Bliss, C. I. (1939). The toxicity of poisons applied jointly. Annals of Applied Biology, 26(3), 585-615.): a score > 0 indicates a synergistic effect; a score = 0 indicates an independent effect; and a score < 0 indicates an antagonistic effect.

Assay [8] concerns SUM149. Described as above. It is filed as cell-based, human. The conditions noted are these: AON-MG23 combined with paclitaxel, SUM149, five days co-treatment, score > 0 indicates a synergistic effect, FIG. 10A. How it is done: as §1
Assay [9] concerns MDA-MB-231 cells. Put plainly: cell migration assay in SPLScar Block plates. It counts as cell-based. The settings on record: Homo sapiens, 24 hours, FIG. 4, read-out: inhibition of migration of MDA-MB-231 cells compared to the control group. As for the experimental part:
Human breast cancer cell line MDA-MB-231 cells were seeded in SPLScar Block plates (SPL LIFE SCIENCES) at a density of 7 x 10^4/well and cultured for 24 hours. […], the blocks were removed, and at the same time, compound AON-MG23 of the present invention was applied at various concentrations. Thereafter, cells were cultured in a CO2 incubator at 37 °C for 24 hours. The cells were treated with the compound of the present invention at various concentrations of 0 µM, 0.5 µM, 1 µM, 2 µM, and 4 µM. Photographs were taken before and after each culture, and the migration distance of the cells was measured using Image J software. Based on the results, the inhibition of the cell migration was analyzed.

On to `COc1cc(N2CCC(N(C)C)CC2)ccc1Nc1ncc(Cl)c(Nc2ccccc2N(C2CC2)S(C)(=O)=O)n1` [AON-MG23, N-(2-((5-chloro-2-((4-(4-(dimethylamino)piperidin-1-yl)-2-methoxyphenyl)amino)pyrimidin-4-yl)amino)phenyl)-N-cyclopropylmethanesulfonamide], for which the “proliferation of breast cancer cells” value in assay [1] was “inhibited”. In addition, the “cell migration compared to the untreated group” value in [2] is reported as “inhibited”. Moreover, the “degree of penetration into Matrigel compared to the untreated control group” value in [3] and in assay [4] was “reduced degree of penetration into Matrigel” each time. In addition, in assay [5], the cell colony formation result is on record as “inhibited”. For the same compound, the minimal effective concentration in assay [6] was ≥ 0.1 µM. For the same compound, the Bliss synergy scoring in assay [7] is 9.249 points; in assay [8], 18.743 points. In addition, the inhibition at 0.5 µM in assay [9] amounted to 50%.

The values above are taken from patent EP4813376A1, “PHARMACEUTICAL COMPOSITION FOR PREVENTION OR TREATMENT OF BREAST CANCER” (Astrion Inc., priority 2023, dated 2025).
